Reference: patent publication US12109176B1, “Effect of glycerol on biofilm forming bacteria and fungi that changes the microbes sensitivity to pro and anti-biofilm non-toxic, non-bonded plasma amino acids and amino acid derivatives” (priority 2023, dated 2024)
Entries after “also recorded” stand apart in the source; their conditions may differ.

Tests used:
[1] = system: fungal biofilm (C. albicans); assay: Fungal biofilm inhibition assay; format: cell-based, Candida albicans
Method: (§1) Two types of biofilm assays were performed: an inhibition assay and a disruption assay. The inhibition assay assesses the compound's ability to prevent biofilm development, while the disruption assay assesses the compound's ability to break up an existing mature biofilm.
(§2) All bacterial biofilm solutions were prepared in Tryptic Soy Broth (TSB), supplemented with 1% glucose (henceforth referred to as TSB-G). All subsequent procedures were performed in a manner that maintained sterility. A solution of each amino acid or an amino acid derivative to be tested was prepared in weight to volume concentrations ranging from 0.1-5.0%. Amino acids and amino acid derivatives were also tested in combinations. Compound solutions were homogenized with gentle agitation in the dark (4° C., 24 hours) before use.
(§3) 32 Amino acids and 2 amino acid derivatives of the amino acid serine that occur freely in human blood were tested. […] 31 of the 32 amino acids that were tested were the L-Isomers. Glycine has no stereoisomers. The 2 amino acid derivatives, ethanolamine and phosphoethanolamine were also tested. All biofilm assays were performed using 384-well non-tissue culture-treated polystyrene plates. The fungal species tested are as follows: Candida albicans, Candida guilliermondii, Candida parapsilosis, Candida glabrata, Candida tropicalis and Candida dubliniensis. The bacterial species tested are as follows: Staphylococci (standard wild type and methicillin-resistant strain USA300), Escherichia coli, Pseudomonas aeruginosa and Staphylococcus epidermidis.
(§4) Fungal strains were streaked on Yeast Peptone Dextrose (YPD) agar plates and incubated at 30° C. for 48 hours. A single colony from each strain to be tested was inoculated into YPD broth and grown for 12 hours at 30° C., shaking at 225 rpm. […] The cells were allowed to adhere to the plate for 90 minutes at 37° C. with shaking (350 rpm). […] The plate was further incubated for 24 hours at 37° C. with shaking (350 rpm). Media was carefully aspirated and the biofilm was measured by optical density at 600 nm. […] The cells were allowed to adhere to the plate for 90 minutes at 37° C. with shaking (350 rpm). […] The plate was further incubated for 24 hours at 37° C. with shaking (350 rpm). […] The plate was further incubated for 24 hours at 37° C. with shaking (350 rpm). Media was carefully aspirated, and the biofilm was measured by optical density at 600 nm.

fungal biofilm = assay: In vitro testing on fungal biofilm (inhibition and/or disruption); format: cell-based; settings: in vitro testing
Method: as §1, §2, §3, §4

[2] = system: bacterial and fungal biofilm; assay: In vitro testing on bacterial and fungal biofilm (assay not told apart); format: cell-based; settings: for effect on bacterial and fungal biofilm (in words): in vitro testing; for concentration of maximum (ideal) antibiofilm effect: tested on its own, without glycerol
Method: as §1, §2, §3, §4
(§5) Bacterial strains were streaked on Blood Agar plates (5% sheep blood in Tryptic Soy Broth) and incubated at 37° C. for 24 hours. A single colony from each strain to be tested was inoculated in a TSB broth and grown for 12 hours, at 37° C. with shaking (225 rpm). For the bacterial biofilm inhibition assays, 1 μL of saturated overnight cell culture was added to either 80 μL of TSB-G, or TSB-G supplemented with the amino acid compound solution to be tested, in a 384-well plate. The cells were allowed to adhere to the plate for 60 minutes at 37° C. without shaking. The media was carefully aspirated and 80 μL of TSB-G, or TSB-G supplemented with the amino acid compound solution was added to the plate. The plate was further incubated for 24 hours at 37° C. without shaking. Media was carefully aspirated and the biofilm was measured by optical density at 600 nm. Eight or twelve replicates were performed for each tested condition and the reported values are normalized to the control (TSB-G media only). For the bacterial biofilm disruption assays, 80 µL of TSB-G was added to the plate, along with 1 μL of overnight cell culture. The cells were allowed to adhere to the plate for 60 minutes at 37° C. with no shaking. The media was carefully aspirated and 80 μL of TSB-G was added to the plate. The plate was further incubated for 24 hours at 37° C. with no shaking. Media was carefully aspirated from the mature biofilm and 80 μL of TSB-G, or TSB-G supplemented with the amino acid to be tested, was gently added to the plate.

[3] = system: bacterial (S. aureus) biofilm; assay: Bacterial biofilm inhibition assay; format: cell-based, Staphylococcus aureus
[4] = system: bacterial (S. aureus) biofilm and fungal biofilm (C. albicans); assay: Biofilm inhibition assay, bacterial and fungal taken together; format: cell-based
[5] = system: fungal biofilm (C. albicans); assay: Fungal biofilm disruption assay; format: cell-based, Candida albicans
Method: as §1, §2, §3, §4

bacterial biofilm = assay: In vitro testing on bacterial biofilm (inhibition and/or disruption); format: cell-based; settings: in vitro testing
[6] = system: bacterial (S. aureus) biofilm; assay: Bacterial biofilm disruption assay; format: cell-based, Staphylococcus aureus
Method: as §1, §2, §3
Bacterial strains were streaked on Blood Agar plates (5% sheep blood in Tryptic Soy Broth) and incubated at 37° C. for 24 hours. A single colony from each strain to be tested was inoculated in a TSB broth and grown for 12 hours, at 37° C. with shaking (225 rpm). For the bacterial biofilm inhibition assays, 1 μL of saturated overnight cell culture was added to either 80 μL of TSB-G, or TSB-G supplemented with the amino acid compound solution to be tested, in a 384-well plate. The cells were allowed to adhere to the plate for 60 minutes at 37° C. without shaking. The media was carefully aspirated and 80 μL of TSB-G, or TSB-G supplemented with the amino acid compound solution was added to the plate. The plate was further incubated for 24 hours at 37° C. without shaking. Media was carefully aspirated and the biofilm was measured by optical density at 600 nm. Eight or twelve replicates were performed for each tested condition and the reported values are normalized to the control (TSB-G media only). For the bacterial biofilm disruption assays, 80 µL of TSB-G was added to the plate, along with 1 μL of overnight cell culture. The cells were allowed to adhere to the plate for 60 minutes at 37° C. with no shaking. The media was carefully aspirated and 80 μL of TSB-G was added to the plate. The plate was further incubated for 24 hours at 37° C. with no shaking. Media was carefully aspirated from the mature biofilm and 80 μL of TSB-G, or TSB-G supplemented with the amino acid to be tested, was gently added to the plate. The plate was further incubated for 24 hours at 37° C. without shaking. Media was aspirated and the biofilm was measured by optical density at 600 nm. Twelve replicates were performed for each tested condition and the reported values are normalized to the control (TSB-G media only).

[7] = system: bacterial (S. aureus) biofilm and fungal biofilm (C. albicans); assay: Biofilm disruption assay, bacterial and fungal taken together; format: cell-based
Method: as §1, §2, §3, §4, §5

[8] = Table F, in the presence of a sufficient concentration of glycerol
[9] = Table D, bacterial and fungal biofilm

| Structure (SMILES) | Reduce or Inhibit F Biofilm (squares: Inhibition Biofilm Assay) ([1]; Table D, 0.1 to 5.0%) | Reduce or Inhibit F Biofilm (squares: Inhibition Biofilm Assay) [1, 8] | effect on fungal biofilm (in words) (fungal biofilm) | ideal concentration for antibiofilm effect ([2]; in the absence of glycerol on in vitro testing) [g %] | effect on bacterial and fungal biofilm (in words) [2] | effect on bacterial and fungal biofilm (in words) ([2]; listed as Aspartic acid) | concentration of maximum (ideal) antibiofilm effect [2] [%] | Reduce or Inhibit B Biofilm (squares: Inhibition Biofilm Assay) ([3]; Table D, 0.1 to 5.0%) | Reduce or Inhibit B Biofilm (squares: Inhibition Biofilm Assay) [3, 8] | Reduce Both (squares: Inhibition Biofilm Assay) [4, 9] | Reduce Both (squares: Inhibition Biofilm Assay) [4, 8] | Reduce or Inhibit F Biofilm (dots: Disruption Biofilm Assay) ([5]; Table D, 0.1 to 5.0%) | Reduce or Inhibit F Biofilm (dots: Disruption Biofilm Assay) [5, 8] | effect on bacterial biofilm (in words) (bacterial biofilm) | Reduce or Inhibit B Biofilm (dots: Disruption Biofilm Assay) ([6]; Table D, 0.1 to 5.0%) | Reduce or Inhibit B Biofilm (dots: Disruption Biofilm Assay) [6, 8] | Reduce Both (dots: Disruption Biofilm Assay) [7, 9] | Reduce Both (dots: Disruption Biofilm Assay) [7, 8] |
| --- | --- | --- | --- | --- | --- | --- | --- | --- | --- | --- | --- | --- | --- | --- | --- | --- | --- | --- |
| N[C@@H](CC(=O)O)C(=O)O [Aspartic Acid, L-aspartic acid] | ▪▪ (Two squares [ie. ▪▪] signifies a major effect (greater than about 50%), on the Inhibition Biofilm Assay) | ▪▪ (Two squares [ie. ▪▪] signifies a major effect (greater than about 50%), on the Inhibition Biofilm Assay) | antifungal biofilm effects | 0.5 | very active against both bacterial and fungal biofilm | strong effect on biofilm-forming bacteria and fungi in reducing biofilm formation | 0.5 | ▪▪ (Two squares [ie. ▪▪] signifies a major effect (greater than about 50%), on the Inhibition Biofilm Assay) | ▪▪ (Two squares [ie. ▪▪] signifies a major effect (greater than about 50%), on the Inhibition Biofilm Assay) | ▪▪ (Two squares [ie. ▪▪] signifies a major effect (greater than about 50%), on the Inhibition Biofilm Assay) | ▪▪ (Two squares [ie. ▪▪] signifies a major effect (greater than about 50%), on the Inhibition Biofilm Assay) | ●● (Two dots [ie. ●●] signifies a major effect (greater than about 50%), on the Disruption Biofilm Assay) | ●● (Two dots [ie. ●●] signifies a major effect (greater than about 50%), on the Disruption Biofilm Assay) | antibacterial biofilm effect | ●● (Two dots [ie. ●●] signifies a major effect (greater than about 50%), on the Disruption Biofilm Assay) | ●● (Two dots [ie. ●●] signifies a major effect (greater than about 50%), on the Disruption Biofilm Assay) | ●● (Two dots [ie. ●●] signifies a major effect (greater than about 50%), on the Disruption Biofilm Assay) | ●● (Two dots [ie. ●●] signifies a major effect (greater than about 50%), on the Disruption Biofilm Assay) |
| N[C@@H](CS)C(=O)O [Cysteine, L-cysteine] | ▪▪ (Two squares [ie. ▪▪] signifies a major effect (greater than about 50%), on the Inhibition Biofilm Assay) | ▪▪ (Two squares [ie. ▪▪] signifies a major effect (greater than about 50%), on the Inhibition Biofilm Assay) | antifungal biofilm effects |  | potent antibiofilm effect; also recorded: strong antibiofilm effect; also recorded: activity against both bacterial and fungal biofilm |  | 0.5 | ▪▪ (Two squares [ie. ▪▪] signifies a major effect (greater than about 50%), on the Inhibition Biofilm Assay) | ▪▪ (Two squares [ie. ▪▪] signifies a major effect (greater than about 50%), on the Inhibition Biofilm Assay) | ▪▪ (Two squares [ie. ▪▪] signifies a major effect (greater than about 50%), on the Inhibition Biofilm Assay) | ▪▪ (Two squares [ie. ▪▪] signifies a major effect (greater than about 50%), on the Inhibition Biofilm Assay) | ●● (Two dots [ie. ●●] signifies a major effect (greater than about 50%), on the Disruption Biofilm Assay) | ●● (Two dots [ie. ●●] signifies a major effect (greater than about 50%), on the Disruption Biofilm Assay) | antibacterial biofilm effect | ●● (Two dots [ie. ●●] signifies a major effect (greater than about 50%), on the Disruption Biofilm Assay) | ●● (Two dots [ie. ●●] signifies a major effect (greater than about 50%), on the Disruption Biofilm Assay) | ●● (Two dots [ie. ●●] signifies a major effect (greater than about 50%), on the Disruption Biofilm Assay) | ●● (Two dots [ie. ●●] signifies a major effect (greater than about 50%), on the Disruption Biofilm Assay) |
